Reference: patent publication US20090233979A1, “Indole Derivatives and Their Use as Thyroid Receptor Ligands” (KARO BIO AB, priority 2006, published 2009)

How the values were obtained:
hTRβ = target: T1, hTRβ (Homo sapiens, UniProt P10828); assay: TR competition binding assay with filter separation; conditions: for IC50: competition with tracer 125I-T3, full length hTRβ, read-out: TR-β IC50; for binding to the TR-β receptor and/or agonistic activity compared to compounds lacking a substituent in the 2-position on the indole ring: versus Comparative Examples 1, 3, 4
T1 sequence (P10828 1-461): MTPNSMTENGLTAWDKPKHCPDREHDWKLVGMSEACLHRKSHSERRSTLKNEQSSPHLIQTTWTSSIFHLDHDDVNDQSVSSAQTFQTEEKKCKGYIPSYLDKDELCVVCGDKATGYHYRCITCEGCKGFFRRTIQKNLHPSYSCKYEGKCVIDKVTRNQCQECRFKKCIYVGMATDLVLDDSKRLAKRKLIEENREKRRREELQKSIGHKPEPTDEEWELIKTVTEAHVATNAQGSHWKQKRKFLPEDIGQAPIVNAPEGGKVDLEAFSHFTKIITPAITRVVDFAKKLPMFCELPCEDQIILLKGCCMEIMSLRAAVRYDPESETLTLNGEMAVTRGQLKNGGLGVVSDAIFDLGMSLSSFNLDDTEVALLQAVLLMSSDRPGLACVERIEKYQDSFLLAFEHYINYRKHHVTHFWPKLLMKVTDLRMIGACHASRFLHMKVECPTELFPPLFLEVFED
Method: TR Competition Binding Assay with Filter Separation
Compounds are tested for their ability to compete with the tracer ^125I-T3 for binding to full length hTRα and hTRβ. Receptor extracts and tracer are diluted in assay buffer (17 mM K2HPO4, 3 mM KH2PO4, 400 mM KCl, 1 mM MgCl2, 0.5 mM EDTA and 8.7% glycerol). ^125I-T3 is diluted to a final concentration of 0.2 nM and receptor is diluted to reach a final count in Trilux Microbeta of approximately 10000 ccpm. […] To 96 well microtiter plates are 100 μl tracer, 4 μl test compound dilution series and 100 μl receptor dilution added. The assay plates are incubated at +4° C. over night (app. 16 hrs incubation). Receptor bound and free tracer are separated over a glass fiber filter ([…] B, PerkinElmer)) on a Tomtec Cellharvester with 18 mM K2HPO4, 2 mM KH2PO4, 0.5 mM EDTA wash buffer. The filters are dried at 60° C. for 1 hour and then merged with a scintillant wax (MELTILEX, PerkinElmer) on a Wallac Microsealer before measuring in a Trilux Microbeta. IC50s, the concentration test compound needed to decrease tracer binding by 50 percent, are generated via analysis of data in XLfit version 2.0 or later with a four parameter logistic model.

human ThRβ1 = target: T2, human ThRβ1 (Homo sapiens, UniProt P10828); assay: Reporter cell line (TRAF) assay, CHO/hThRβ1, alkaline phosphatase reporter; type: cell-based; conditions: CHO/hThRβ1 reporter cells, 48 hours incubation; read-out: β % agonism
T2 construct: The cDNAs encoding the full length human ThRα1 and ThRβ1; expressed in transfected cells
T2 sequence (P10828 1-461): T1 sequence (P10828 1-461)
Description: Vector Constructs, Generation of Reporter Cell Lines (TRAF), and Assay Procedure.
The cDNAs encoding the full length human ThRα1 and ThRβ1 were cloned in the mammalian expression vector pMT-hGH. The pDR4-ALP reporter vector contains one copy of the direct repeat sequence AGGTCA nnnnAGGTCA, fused upstream of the core promoter sequences of the mouse mammary tumor virus long terminal repeat (MMTV), replacing the glucocorticoid response elements. The DR4-MMTV promoter fragment was then cloned in the 5′ end of the cDNA encoding human placental alkaline phosphatase (ALP), followed in the 3′-end by the polyA-signal sequence of the human growth hormone gene. Chinese hamster ovary (CHO) K1 cells (ATCC No. CCL 61) were transfected in two steps, first with the receptor expression vectors pMT-hThRα1 and pMT-ThRβ1, respectively, and the drug resistance vector pSV2-Neo, and in the second step, with the reporter vector pDR4-ALP and the drug resistance vector pKSV-Hyg. Individual drug resistant clones were isolated and selected based on T3 inducibility. One stable reporter cell clone each of CHO/hThRα1 and CHO/hThRβ1 were chosen for further study in response to various thyroid hormone agonists.
CHO/hThRα1 and CHO/hThRβ1 were seeded in growth medium (Coon's/F12, 10% L-3,5,3′-triiodothyronine and L-thyroxine depleted FCS, 2 mM L-glutamine) in 96-well plates at 20×10^3 cells per well. After 24 hour incubation at 37° C. in humidified chambers, at 5% CO2, conditioned medium was replaced by induction medium (OptiMEM, 2 mM L-glutamine, […] gentamycin) and cells were exposed to the test compounds at serial dilutions, at final DMSO concentration of 0.5%, or to serial dilution of T3 (positive control), to assess agonist activity of test compounds.
In order to examine antagonistic effect of test compounds, CHO/hThRα1 and […] were exposed to serial dilution of the compounds in the presence of 1 nM T3 (CHO/hThRα1) or 3 nM T3 (CHO/hThRβ1).
After 48 hours incubation at 37° C. in humidified chambers at 5% CO2 the level of alkaline phosphatase expressed and secreted into the cell culture medium was analyzed by chemiluminescence on MicroBeta Trilux.

Row | SMILES | IC50 (hTRβ) | Emax (human ThRβ1) | binding to the TR-β receptor and/or agonistic activity compared to compounds lacking a substituent in the 2-position on the indole ring (hTRβ)
1 | COc1ccc(-c2[nH]c3ccc(Oc4c(Cl)cc(CCC(=O)O)cc4Cl)cc3c2C(C)C)cc1 [Comparative Example 2, 3-{3,5-Dichloro-4-[3-isopropyl-2-(4-methoxy-phenyl)-1H-indol-5-yloxy]-phenyl}-propionic acid, reference compound] | 51.5 nM | 80.2% | 
2 | COc1ccc(-c2[nH]c3ccc(Oc4c(Br)cc(CCC(=O)O)cc4Br)cc3c2C)cc1 [Example 3, 3-(3,5-dibromo-4-{[2-(4-methoxyphenyl)-3-methyl-1H-indol-5-yl]oxy}phenyl)propanoic acid] | 7.16 nM | 97.5% | improved binding to the TR-β receptor and/or improved agonistic activity
3 | CCc1c(-c2ccc3c(c2)OCO3)[nH]c2ccc(Oc3c(Cl)cc(CCC(=O)O)cc3Cl)cc12 [Example 8, 3-(4-{[2-(1,3-benzodioxol-5-yl)-3-ethyl-1H-indol-5-yl]oxy}-3,5-dichlorophenyl)propanoic acid] | 2.5 nM | 76.9% | improved binding to the TR-β receptor and/or improved agonistic activity
4 | CCc1c(-c2ccc3c(c2)OCO3)[nH]c2ccc(Oc3c(Br)cc(CCC(=O)O)cc3Br)cc12 [Example 9, 3-(4-{[2-(1,3-benzodioxol-5-yl)-3-ethyl-1H-indol-5-yl]oxy}-3,5-dibromophenyl)propanoic acid] | 0.33 nM | 70.3% | improved binding to the TR-β receptor and/or improved agonistic activity
5 | CCc1c(-c2ccc(OC)cc2)[nH]c2ccc(Oc3c(Br)cc(CCC(=O)O)cc3Br)cc12 [Example 10, 3-(3,5-dibromo-4-{[2-(4-methoxyphenyl)-3-ethyl-1H-indol-5-yl]oxy}phenyl)propanoic acid] | 2.77 nM | 79.7% | improved binding to the TR-β receptor and/or improved agonistic activity
6 | CCCc1c(-c2ccc(OC)cc2)[nH]c2ccc(Oc3c(Br)cc(CCC(=O)O)cc3Br)cc12 [Example 13, 3-(3,5-dibromo-4-{[2-(4-methoxyphenyl)-3-propyl-1H-indol-5-yl]oxy}phenyl)propanoic acid] | 8.88 nM | 70.7% | improved binding to the TR-β receptor and/or improved agonistic activity
7 | CCOC(=O)CNc1cc(C)c(Oc2ccc3[nH]cc(C(C)C)c3c2)c(C)c1 [compound 3, reference compound] | 326 nM | 69.7% | 
8 | Cc1cc(NCC(=O)O)cc(C)c1Oc1ccc2[nH]cc(C(C)C)c2c1 [compound 4, reference compound] | 43.1 nM | 39.7% | 
